According to patent US20240124503A1, “HETEROAROMATIC PHOSPHONIUM SALTS AND THEIR USE TREATING CANCER” (FLORATEK PHARMA S.A., priority 2021, published 2024):

Experiments:
colon PDX = experiment: Cell viability, colon PDX (panel statement); format: cell-based; settings: text summary of Table 7; read-out: IC50, growth of colon PDX
Description: PDX-derived cell cultures were obtained from tumors explanted from mice and isolated by mechanical and enzymatic dissociation. […] Cells were harvested and seeded in 96-wells plates at a density of 1.25 to 5×10^3 cells/well for cytotoxicity assays. Cells were incubated 48 h at 37° C. prior to addition of test molecules and vehicle (DMSO, 0.1%) at desired final concentrations. Cell viability was assessed before drugs' addition (To) and 5 days after test molecules addition by measuring ATP cell content using CellTiter-Glo® Luminescent Cell Viability Assay (Promega) according to the manufacturer's instructions. Luciferase activity was measured on a luminometer (PerkinElmer® EnVision™). Each concentration of compounds was tested in triplicate.
Viability was calculated as a percentage of ATP value compared to vehicle treated controls.
For PDX primary cell cultures, the tumour tissue was washed with PBS containing antibiotic-antimycotic and non-tumour tissue and necrotic tumour tissues were separated. The tumour tissue was transferred to a new dish and cut into 1˜2 mm^3 fragments, resuspended in RPMI-1640 medium and centrifuged at 1,200 rpm for 6 min at room temperature. The pelleted material was resuspended with 15 mL of Tumour Cell Digestion Solution and incubated at 37° C. for 1 hour with agitation. […]

SK-N-AS = experiment: Cell viability assay, SK-N-AS; format: cell-based; settings: Homo sapiens; brain carcinoma cell line SK-N-AS
Description: Antitumor activity of the compounds and doxorubicin as a positive control was assessed by using the CellTiter-Blue Cell Viability Assay (Promega, #G8082) or CellTiter-Glow® Luminescent Cell Viability assay (Promega #G7572) according to the manufacturer's instructions. The compounds were tested at 5 or 6 concentrations in half-log increments (highest concentration 30 μM or 100 μM) in duplicate or triplicate well conditions.
Tumor cells were grown at 37° C. in a humidified atmosphere with 5% CO2 in RPMI 1640 or DMEM medium, supplemented with 10% (v/v) fetal calf serum and 50 μg/ml gentamicin for up to 20 passages, and were passaged once or twice weekly. Cells were harvested using TrypLE or PBS buffer containing 1 mM EDTA, and the percentage of viable cells was determined using a CASY Model TI cell counter (OMNI Life Science). Cells were harvested from exponential phase cultures, counted and plated in 96 well flat-bottom microtiter plates at a cell density depending on the cell line's growth rate (4,000-20,000 cells/well depending on the cell line's growth rate, up to 60,000 for hematological cancer cell lines) in RPMI 1640 or DMEM medium supplemented with 10% (v/v) fetal calf serum and 50 μg/ml gentamicin (140 μl/well). […] Viability of cells was quantified by the CellTiter-Blue® cell viability assay (Promega G8081) or CellTiter-Glow® Luminescent Cell Viability assay (Promega #G7572). […]

SMILES: COc1c(O)ccc2c(=O)c(O)c(-c3ccc(CCCC[P+](c4ccccc4)(c4ccccc4)c4ccccc4)cc3)oc12 [SND190, (4-(4-(3,7-Dihydroxy-8-methoxy-4-oxo-4H1-chromen-2-yl)phenyl)butyl)triphenylphosphonium bromide]
- IC50 (colon PDX): < 20 µM
- IC50 (SK-N-AS): 3 µM
